The data set in a line: Human HepG2 cell viability assay in 384 well format. The class given is toxicity, cell-based. Details: dose 125 nL, time 70.5 hour; concentration not given beside the values. Conditions: HepG2 cells, read-out: Inhibition.
On to `CC(C)CN1CCN(C)C(CCO)C1` (stereo not drawn), for which the cytotoxicity at 70.5 h is -8.39%. `Cn1cc(NC(=O)N2CCC(CN3CCCC3)CC2)ccc1=O`: the cytotoxicity at 70.5 h was -0.384%.

In the case of `CC(C1CCN(C(=O)c2coc(CN3CCOCC3)c2)CC1)N(C)C` (stereo not drawn), the cytotoxicity at 70.5 h was -1.57%. For the compound `COc1cccc2c1OCC(C(=O)NCc1ncc3c(n1)CCC3)C2` (stereo not drawn), the cytotoxicity at 70.5 h was -9.1%. As for `CN(Cc1ccco1)C(=O)CN1CCCCC1Cn1cncn1` (stereo not drawn), the cytotoxicity at 70.5 h was -8.72%.

For `COc1ccc(CCN2C(=O)O[C@@H]3CN(C4CCOCC4)C[C@@H]32)cc1`, the cytotoxicity at 70.5 h is 5.89%. Regarding `CCCS(=O)(=O)c1ccc(N2CCC(Cc3ccccc3)CC2)nn1`, the cytotoxicity at 70.5 h was -2.73%. As to `O=C(NCC(Cc1cccc(F)c1)N1CCCC1=O)c1ccc(=O)[nH]n1` (stereo not drawn), the cytotoxicity at 70.5 h worked out at 1.13%. Under `CCc1nc(C2CCCN2C(=O)c2cc[nH]n2)no1` (stereo not drawn) stands 3.06%; under `CCOc1cc(C)nc(N2CCN(C(=O)CN(C)C3CC3)CC2)n1`, -9.22%; under `Cc1cc(NC(=O)N(C)C2CCCN(c3ccccc3)C2=O)n(C)n1` (stereo not drawn), -2.17%.

As for `Cn1cc(C2CCCN2C(=O)Cc2coc(-c3ccccc3)n2)cn1` (stereo not drawn), the cytotoxicity at 70.5 h is -7.27%. As to `CCC(NC(=O)NCC(=O)Nc1ccc(F)cc1)c1ccncc1` (stereo not drawn), the cytotoxicity at 70.5 h is 2.31%. On to `CCC1(CO)CCCN(Cc2nccn2Cc2ccccc2)C1` (stereo not drawn), for which the cytotoxicity at 70.5 h was -4.15%.

Turning to `CCOCC(O)CN1CCN(C(=O)c2ccc(N(C)C)nn2)CC1` (stereo not drawn), the cytotoxicity at 70.5 h amounted to 24.3%.

Consider `COC(=O)c1ccc(C(=O)N2CCCC(Nc3ccc(F)cc3)C2)cc1` (stereo not drawn), for which the cytotoxicity at 70.5 h was -1.16%.

`CN(C)C(=O)NCc1nnn2c1CN(CC1CCOCC1)CCC2`: the cytotoxicity at 70.5 h is 0.222%. Turning to `CCOC(=O)C1CCCCN1Cc1c[nH]nc1-c1ccc(F)cc1F` (stereo not drawn), the cytotoxicity at 70.5 h is -7.54%. Take `COCC1CCN(C(C(=O)O)c2c(F)cccc2OC(C)C)CC1` (stereo not drawn): the cytotoxicity at 70.5 h is -6.42%. For `Cc1nc(NCCc2noc(C3CCCO3)n2)c2sccc2n1` (stereo not drawn), the cytotoxicity at 70.5 h is 49.7%. Under `O=C(CN1CCN(c2ncccn2)[C@@H]2CS(=O)(=O)C[C@@H]21)N1CCCCC1` stands -1.85%. Consider `COc1cc(C)sc1C(=O)NCCC(=O)N(C)c1ccccc1`, for which the cytotoxicity at 70.5 h is -2.86%. Take `O=C(NCc1cncc2c1CCN(C1CCOC1)C2)c1ccco1` (stereo not drawn): the cytotoxicity at 70.5 h is -2.1%.

In the case of `CC(C)c1ccn(C2(C(=O)O)CCN(c3cc(C(N)=O)ccn3)CC2)n1`, the cytotoxicity at 70.5 h is -3.6%. Take `CCOCCC(=O)Nc1cccc(Oc2ccccn2)c1`: the cytotoxicity at 70.5 h stood at 23.9%. As for `O=C(c1csc(-c2cccs2)n1)N1CCN2CCCCC2C1` (stereo not drawn), the cytotoxicity at 70.5 h is -2.54%. Under `CCNc1nc(C)c(C(=O)N(C)Cc2nc(-c3ccncc3)no2)s1` stands 1.19%; under `Cc1occc1C(=O)N1CC[C@@H](N2CCOCC2)[C@@H]1Cc1ccccc1`, -7.85%; under `CCc1cc(N2CCC(N[C@@H]3CS(=O)(=O)C[C@H]3O)CC2)nc(N(C)C)n1`, 0.303%. Take `Nc1cc2c(nn1)CCN(C(=O)CC1CCCC1)C2`: the cytotoxicity at 70.5 h turned out to be 3.78%. Consider `O=C(C1CC1)N1CCN2C[C@@H](CO)[C@H](c3ccccc3)[C@H]2C1`, for which the cytotoxicity at 70.5 h worked out at 8.58%. Under `COCC(=O)N1C[C@H]2CNC[C@@]2(C(=O)NCc2nc(C)cc(C)n2)C1` stands -7.28%.

As for `CCCc1nc(CNCC2CCCN2c2cccnn2)no1` (stereo not drawn), the cytotoxicity at 70.5 h turned out to be 22.6%. As for `COCc1noc(C2(c3cccc(Cl)c3)CCOCC2)n1`, the cytotoxicity at 70.5 h came to 26.5%. For the compound `Cc1cc(CNC(=O)C2CCCN2C(=O)OC(C)(C)C)no1` (stereo not drawn), the cytotoxicity at 70.5 h is -0.379%. With `c1cnc(N2CC[C@@H]3[C@@H]2CCN3Cc2cccs2)nc1`, the cytotoxicity at 70.5 h was -4.98%. In the case of `COc1ccc(C(=O)NCC(c2cccn2C)N2CCN(C)CC2)cc1` (stereo not drawn), the cytotoxicity at 70.5 h is -4.93%.

As for `CN(Cc1ccco1)C[C@H]1OC[C@@H]2CCN(Cc3cccnc3)C[C@@H]21`, the cytotoxicity at 70.5 h is -7.43%.

The record behind these values is ChEMBL document CHEMBL3507680, “University of Dundee, Gates Library screen for HepG2 cell viability”.
